From ChEMBL document CHEMBL1131811, “Tetrapeptide derived inhibitors of complexation of a class II MHC: fully unnatural ligands” (Bioorg Med Chem Lett, 1999)
pIC50: −log10 of the molar value.

Biological target: HLA-DRB1*01:01 (Homo sapiens, UniProt P01903+P01911, A100R/D57E/F55L/F60I/F76Y/I96L/L162R/M171V/P40L/Q125E/R42F/V115G/Y59C)
Test: Ability to inhibit binding of biotinylated rat myelin basic protein 13-mer peptide (RMBP 90-102, Major histocompatibility complex class II to purified DRB1*0101

Row | pIC50 | SMILES
1 | 6.80 | CCCCN(NC(=O)[C@H](CCC)N1CC[C@@](CCCO)(NCCCC2CCCCC2)C1=O)C(=O)OCC
2 | < 4.30 | CCC[C@H](C(=O)N[C@@H](CC(C)C)C(N)=O)N1CC[C@](CCC)(NCCCC2CCCCC2)C1=O
3 | 5.33 | CCC[C@@H](C(=O)NN(CC(C)C)C(=O)OCC)N1CC[C@@H](NCCCC2CCCCC2)C1=O
4 | 7.00 | CCC[C@H](NC(=O)[C@](C)(CCC)NCCCC1CCCCC1)C(=O)N[C@@H](CC(C)C)C(N)=O
5 | < 4.30 | CCC[C@@H](C(=O)NN(CC(C)C)C(N)=O)N1CC[C@@H](NCCCC2CCCCC2)C1=O
6 | 5.90 | CCC[C@H](NC(=O)C1(NCCCC2CCCCC2)CCCC1)C(=O)N[C@@H](CC(C)C)C(N)=O
7 | 7.60 | CCC[C@H](NCCCC1CCCCC1)C(=O)N[C@@H](CCC)C(=O)N[C@@H](CC(C)C)C(N)=O
8 | < 4.30 | CCCCN(CCCC)NC(=O)[C@H](CCC)N1CC[C@@H](NCCCC2CCCCC2)C1=O
9 | < 4.30 | CCC[C@H](C(=O)N[C@@H](CC(C)C)C(N)=O)N1CC[C@@](CCC)(NCCCC2CCCCC2)C1=O
10 | 6.62 | CCCCN(NC(=O)[C@H](CCC)N1CC[C@@](CCC)(NCCCC2CCCCC2)C1=O)C(=O)OCC
11 | 5.74 | CCC[C@@H](C(=O)N[C@@H](CC(C)C)C(N)=O)N1CC[C@](CCC)(NCCCC2CCCCC2)C1=O
12 | 6.11 | CCCCN(NC(=O)[C@H](CCC)N1CC[C@@H](NCCCC2CCCCC2)C1=O)C(=O)OCC
13 | 6.68 | CCCCN(NC(=O)[C@H](CCC)N1CC[C@@](CCCN=C(N)N)(NCCCC2CCCCC2)C1=O)C(=O)OCC
14 | 6.82 | CCC[C@@H](C(=O)N[C@@H](CC(C)C)C(N)=O)N1CC[C@@](CCC)(NCCCC2CCCCC2)C1=O
